Measurements from patent publication US7491821B2, “Inhibitors of P2X3” (Roche Palo Alto LLC, priority 2005, dated 2009).
Counter-ions that a name gives are not always drawn.

melting point | SMILES
133.9 to 139.9 °C | CC(=O)N1CCN(C[C@@H](C)NC(=O)c2cc3c(-c4ccccc4)nn(C)c3s2)CC1 (as salt: salt) [compound 93, (R)-1-methyl-3-phenyl-1H-thieno[2,3-c]pyrazole-5-carboxylic acid [2-(4-acetyl-piperazin-1-yl)-1-methyl-ethyl]-amide]
133.5 to 140.1 °C | CC(=O)N1CCN(C[C@H](C)NC(=O)c2cc3c(-c4ccccc4)nn(C)c3s2)CC1 (as salt: salt) [compound 94, (S)-1-methyl-3-phenyl-1H-thieno[2,3-c]pyrazole-5-carboxylic acid [2-(4-acetyl-piperazin-1-yl)-1-methyl-ethyl]-amide]
